Source: article PMC6957264 (Bioconjugate chemistry, 2017)

Columns and labels:
isolated PKCδ C1a domain = details: cited from earlier work
isolated PKCδ C1b domain = details: read-out: Kd for the isolated PKCδ C1b domain; cited from earlier work
PKCδ C1b domain = PKCδ C1b domain (Mus musculus, UniProt P28867); assay: [3H]PDBu competitive binding assay, isolated C1b domain of PKCδ; details: read-out: Kd for the binding of [3H]PDBu to the PKCδ C1b
[1] = system: EGFP-tagged PKCδ in CHO cells; assay: Translocation of EGFP-tagged PKCδ in CHO cells, confocal microscopy; type: cell-based, Chinese hamster; details: 10 μM compound, images at 0, 5 and 10 min
[2] = system: C1a and C1b domains of PKCε; details: C1a vs C1b; cited from earlier work
[3] = system: EGFP-tagged PKCε in LNCaP cells; assay: Translocation of GFP-tagged PKCε in LNCaP cells, confocal microscopy; type: cell-based, human; details: 1 μM, single experiment

Sequence of PKCδ C1b domain (P28867 231-280 limits assumed): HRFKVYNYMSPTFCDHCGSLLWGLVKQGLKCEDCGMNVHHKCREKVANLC

Row | Molecule | difference in Kd between isolated PKCδ C1a and C1b domains (isolated PKCδ C1a domain; C1a vs C1b, isolated domains) | Kd (isolated PKCδ C1a domain; read-out: Kd for the isolated PKCδ C1a domain) | Kd (isolated PKCδ C1b domain) | Kd (PKCδ C1b domain) | translocation of EGFP-PKCδ from cytosol to plasma membranes [1] | difference in affinity between the C1a and C1b domains of PKCε [2] | plasma membrane translocation of PKCε [3]
1 | CCCC(=O)O[C@@H]1[C@@H](C)[C@@]2(O)[C@@H](C=C(CO)C[C@]3(O)C(=O)C(C)=C[C@@H]23)[C@@H]2C(C)(C)[C@]12OC(=O)CCC [PDBu, phorbol 12,13-dibutyrate] | 6 fold | 2000 pM | 330 pM | 190 pM | not observed more clearly than those by monomeric and dimeric DAG–lactones | – | –
2 | CCCCCCCCCCCCCC(=O)O[C@@H]1[C@@H](C)[C@@]2(O)[C@@H](C=C(CO)C[C@]3(O)C(=O)C(C)=C[C@@H]23)[C@@H]2C(C)(C)[C@]12OC(C)=O [PMA, phorbol 12-myristate 13-acetate] | – | – | – | – | – | ≤ 3 fold | dramatic plasma membrane translocation
3 | sn-1,2-diacylglycerol [DAG] | – | – | – | – | – | ≤ 3 fold | –
